Measured values from patent US11591336B2 (Relay Therapeutics, Inc., priority 2017, dated 2023).
Counter-ions that a name gives are not always drawn.

Target: SHP2 (Homo sapiens (Human), UniProt Q06124)
Experiment: SHP2 Allosteric Inhibition Assay (DiFMUP prompt fluorescence)
Assay type: biochemical
Conditions: 0.25 nM SHP2 activated with 0.5 μM peptide IRS1_pY1172(dPEG8)pY1222; substrate DiFMUP 100 μM; 25° C.

SMILES	IC50
C[C@@H]1OCC2(CCN(c3cnc4c(N5CCCc6c5ccnc6C(N)=O)n[nH]c4n3)CC2)[C@@H]1N [Compound 335, 1-{6-[(3S,4S)-4-amino-3-methyl-2-oxa-8-azaspiro[4.5]decan-8-yl]-1H-pyrazolo[3,4-b]pyrazin-3-yl}-1,2,3,4-tetrahydro-1,6-naphthyridine-5-carboxamide]	< 1000 nM
C[C@@H]1OCC2(CCN(c3cnc4c(N5CCCc6nc(C(F)F)ccc65)n[nH]c4n3)CC2)[C@@H]1N [Compound 297]	< 1000 nM
CC1(N)CCN(c2cnc3c(Sc4cccn5ccnc45)n[nH]c3n2)CC1 [Compound 496, 1-(3-(imidazo[1,2-a]pyridin-8-ylthio)-1H-pyrazolo[3,4-b]pyrazin-6-yl)-4-methylpiperidin-4-amine hydrochloride]	< 1000 nM
Cc1ccc2c(c1)N(c1n[nH]c3nc(N4CCC(C)(CN)CC4)cnc13)CCC2 [Compound 44]	1000 to 10000 nM
CC1(CN)CCN(c2cnc3c(Sc4ccn5nccc5c4)n[nH]c3n2)CC1 [Compound 513, (4-methyl-1-(3-(pyrazolo[1,5-a]pyridin-5-ylthio)-1H-pyrazolo[3,4-b]pyrazin-6-yl)piperidin-4-yl)methanamine]	< 1000 nM
C[C@@H]1OCC2(CCN(c3cnc4c(N5CCc6cc(-c7cnn(C)c7)ccc6C5)n[nH]c4n3)CC2)[C@@H]1N [Compound 338]	< 1000 nM
C[C@@H]1OCC2(CCN(c3cnc4c(N5CCc6c(-c7nccs7)cccc65)n[nH]c4n3)CC2)[C@@H]1N [Compound 221]	< 1000 nM
C[C@@H]1OCC2(CCN(c3cnc4c(N5CCCc6nc(C7=CCOCC7)ccc65)n[nH]c4n3)CC2)[C@@H]1N [Compound 237]	< 1000 nM
CC1(N)CCN(c2cnc3c(N4CCCc5ccncc54)n[nH]c3n2)CC1 [Compound 27]	≥ 10000 nM
C[C@@H]1OCC2(CCN(c3cnc4c(N5CCN(C)c6cc(-c7ncco7)ccc65)n[nH]c4n3)CC2)[C@@H]1N [Compound 395]	< 1000 nM
CO/N=C/c1ccc2c(c1)[C@@H](C)CCN2c1n[nH]c2nc(N3CCC4(CC3)CO[C@@H](C)[C@H]4N)cnc12 [Compound 426, (3S,4S)-8-{3-[(4S)-6-[(1E)-(methoxyimino)methyl]-4-methyl-1,2,3,4-tetrahydroquinolin-1-yl]-1H-pyrazolo[3,4-b]pyrazin-6-yl}-3-methyl-2-oxa-8-azaspiro[4.5]decan-4-amine]	< 1000 nM
c1ccc(C2CCCN(c3cnc4c(N5CCCc6ncccc65)n[nH]c4n3)C2)cc1 (stereo not drawn) [Compound 152]	≥ 10000 nM
C[C@@H]1OCC2(CCN(c3cnc4c(N5CCCc6nc(-c7ncon7)ccc65)n[nH]c4n3)CC2)[C@@H]1N [Compound 246, (3S,4S)-8-(3-(6-(1,2,4-oxadiazol-3-yl)-3,4-dihydro-1,5-naphthyridin-1(2H)-yl)-1H-pyrazolo[3,4-b]pyrazin-6-yl)-3-methyl-2-oxa-8-azaspiro[4.5]decan-4-amine]	< 1000 nM
CC1CCN(c2n[nH]c3nc(N4CCC5(CC4)CO[C@@H](C)[C@H]5N)cnc23)c2ccc(C#N)cc21 (stereo partly drawn) [Compound 218]	< 1000 nM
CC1CCN(c2n[nH]c3nc(N4CCC5(CC4)CO[C@@H](C)[C@H]5N)cnc23)c2cc(F)c(C#N)cc21 (stereo partly drawn) [Compound 223]	< 1000 nM
NCC1(F)CCN(c2cnc3c(Sc4ccccc4Cl)n[nH]c3n2)CC1 [Compound 485, (1-(3-((2-chlorophenyl)thio)-1H-pyrazolo[3,4-b]pyrazin-6-yl)-4-fluoropiperidin-4-yl)methanamine]	< 1000 nM
CCCC1CCN(c2n[nH]c3nc(N4CCC(C)(CN)CC4)cnc23)c2ccccc21 (stereo not drawn) [Compound 83]	< 1000 nM
NC(=O)C1CCN(c2cnc3c(N4CCCc5ncccc54)n[nH]c3n2)CC1 [Compound 157]	1000 to 10000 nM
CC(C)n1cc(-c2ccc3c(n2)CCCN3c2n[nH]c3nc(N4CCC5(CC4)CO[C@@H](C)[C@H]5N)cnc23)cn1 [Compound 312, (3S,4S)-8-(3-(6-(1-isopropyl-1H-pyrazol-4-yl)-3,4-dihydro-1,5-naphthyridin-1(2H)-yl)-1H-pyrazolo[3,4-b]pyrazin-6-yl)-3-methyl-2-oxa-8-azaspiro[4.5]decan-4-amine]	< 1000 nM
CC1(CN)CCN(c2cnc3c(N4CCCc5cccnc54)n[nH]c3n2)CC1 [Compound 40]	1000 to 10000 nM

More lines, now with the values ahead:

IC50	SMILES
< 1000 nM	COCCN1CCN(c2n[nH]c3nc(N4CCC5(CC4)CO[C@@H](C)[C@H]5N)cnc23)c2ccc(C#N)cc21 [Compound 406]
< 1000 nM	CNC(=O)c1ccc2c(n1)[C@@H](C)CCN2c1n[nH]c2nc(N3CCC4(CC3)CO[C@@H](C)[C@H]4N)cnc12 [Compound 362, (8S)-5-{6-[(3S,4S)-4-amino-3-methyl-2-oxa-8-azaspiro[4.5]decan-8-yl]-1H-pyrazolo[3,4-b]pyrazin-3-yl}-N,8-dimethyl-5,6,7,8-tetrahydro-1,5-naphthyridine-2-carboxamide]
< 1000 nM	CN=[S@@](C)(=O)c1cccc2c1CCCN2c1n[nH]c2nc(N3CCC4(CC3)CO[C@@H](C)[C@H]4N)cnc12 [Compound 420]
1000 to 10000 nM	CC1(N)CCN(c2cnc3c(Oc4cccnc4N)n[nH]c3n2)CC1 [Compound 508, 3-((6-(4-Amino-4-methylpiperidin-1-yl)-1H-pyrazolo[3,4-b]pyrazin-3-yl)oxy)pyridin-2-amine hydrochloride]
< 1000 nM	NCC1(F)CCN(c2cnc3c(N4CCCc5ncccc54)n[nH]c3n2)CC1 [Compound 76]
< 1000 nM	CCC1(CN)CCN(c2cnc3c(N4CCCc5ncccc54)n[nH]c3n2)CC1 [Compound 98, (1-(3-(3,4-dihydro-1,5-naphthyridin-1(2H)-yl)-1H-pyrazolo[3,4-b]pyrazin-6-yl)-4-ethylpiperidin-4-yl)methanamine dihydrochloride]
< 1000 nM	C[C@@H]1OCC2(CCN(c3cnc4c(N5CCCc6nc(-c7cnoc7)ccc65)n[nH]c4n3)CC2)[C@@H]1N [Compound 380, (3S,4S)-3-methyl-8-{3-[6-(1,2-oxazol-4-yl)-1,2,3,4-tetrahydro-1,5-naphthyridin-1-yl]-1H-pyrazolo[3,4-b]pyrazin-6-yl}-2-oxa-8-azaspiro[4.5]decan-4-amine]
< 1000 nM	C[C@@H]1OCC2(CCN(c3cnc4c(N5CCCc6c5ccnc6N5CCOCC5)n[nH]c4n3)CC2)[C@@H]1N [Compound 307]
1000 to 10000 nM	CC(c1ccccc1)c1n[nH]c2nc(N3CCC(C)(CN)CC3)cnc12 (stereo not drawn) [Compound 17, (4-methyl-1-(3-(1-phenylethyl)-1H-pyrazolo[3,4-b]pyrazin-6-yl)piperidin-4-yl)methanamine]
< 1000 nM	CC1(CN)CCN(c2cnc3c(Oc4cc(N)nc(Cl)c4Cl)n[nH]c3n2)CC1 [Compound 518, 4-((6-(4-(aminomethyl)-4-methylpiperidin-1-yl)-1H-pyrazolo[3,4-b]pyrazin-3-yl)oxy)-5,6-dichloropyridin-2-amine hydrochloride]
< 1000 nM	N[C@@H]1COCC12CCN(c1cnc3c(Sc4cccnc4C(F)(F)F)n[nH]c3n1)CC2 [Compound 483, (S)-8-(3-((2-(trifluoromethyl)pyridin-3-yl)thio)-1H-pyrazolo[3,4-b]pyrazin-6-yl)-2-oxa-8-azaspiro[4.5]decan-4-amine]
≥ 10000 nM	C[C@@H]1OCC2(CCN(c3cnc4c(N5CCc6cccc(-c7cnn(C)c7)c6C5)n[nH]c4n3)CC2)[C@@H]1N [Compound 358]
< 1000 nM	C[C@@H]1OCC2(CCN(c3cnc4c(N5CCCc6nc(C(N)=O)ccc65)n[nH]c4n3)CC2)[C@@H]1N [Compound 243, 5-(6-((3S,4S)-4-amino-3-methyl-2-oxa-8-azaspiro[4.5]decan-8-yl)-1H-pyrazolo[3,4-b]pyrazin-3-yl)-5,6,7,8-tetrahydro-1,5-naphthyridine-2-carboxamide]
< 1000 nM	C[C@@H]1OCC2(CCN(c3cnc4c(N5CCN(C)c6c5cccc6S(C)(=O)=O)n[nH]c4n3)CC2)[C@@H]1N [Compound 367]
< 1000 nM	CC1CCN(c2n[nH]c3nc(N4CCC(C)(CN)CC4)cnc23)c2ccc(C(N)=O)cc21 (stereo not drawn) [Compound 112, 1-(6-(4-(aminomethyl)-4-methylpiperidin-1-yl)-1H-pyrazolo[3,4-b]pyrazin-3-yl)-4-methyl-1,2,3,4-tetrahydroquinoline-6-carboxamide formate]
1000 to 10000 nM	C[C@@H]1OCC2(CCN(c3cnc4c(N5CCCc6c5ccc(C#N)c6-c5cnn(C)c5)n[nH]c4n3)CC2)[C@@H]1N [Compound 210]
< 1000 nM	COCc1cccc2c1CCCN2c1n[nH]c2nc(N3CCC4(CC3)CO[C@@H](C)[C@H]4N)cnc12 [Compound 390]
< 1000 nM	CSc1cccc2c1CCCN2c1n[nH]c2nc(N3CCC(C)(CN)CC3)cnc12 [Compound 191]
≥ 10000 nM	CC1CNCC(Sc2n[nH]c3nc(N4CCC(C)(N)CC4)cnc23)C1 (stereo not drawn) [Cmpd 490]
< 1000 nM	CC1(CN)CCN(c2cnc3c(N4CCCc5nc(C#N)ccc54)n[nH]c3n2)CC1 [Compound 126]
< 1000 nM	C[C@@H]1OCC2(CCN(c3cnc4c(N5CCN([C@H]6C[C@](C)(O)C6)c6cc(C#N)ccc65)n[nH]c4n3)CC2)[C@@H]1N [Compound 527]
< 1000 nM	C[C@@H]1OCC2(CCN(c3cnc4c(N5CCCc6nc(N7CC[C@@H](O)C7)ccc65)n[nH]c4n3)CC2)[C@@H]1N [Compound 260]
< 1000 nM	CNc1nccc(Sc2n[nH]c3nc(N4CCC(C)(N)CC4)cnc23)c1Cl [Compound 497, 4-((6-(4-amino-4-methylpiperidin-1-yl)-1H-pyrazolo[3,4-b]pyrazin-3-yl)thio)-3-chloro-N-methylpyridin-2-amine hydrochloride]
< 1000 nM	COc1nccc(Sc2n[nH]c3nc(N4CCC(C)(N)CC4)cnc23)c1Cl [Compound 479, 1-(3-((3-chloro-2-methoxypyridin-4-yl)thio)-1H-pyrazolo[3,4-b]pyrazin-6-yl)-4-methylpiperidin-4-amine]
< 1000 nM	CC1(CN)CCN(c2cnc3c(N4CCc5cc(C#N)ccc54)n[nH]c3n2)CC1 [Compound 133]
